{"source": "patent US20020150968A1", "about": "“Glycoconjugate and sugar nucleotide synthesis using solid supports” (priority 2001, published 2002)", "molecules": {"B1": {"name": "GalT: galactose-1-phosphate uridylyltransferase, E. coli, N-terminal six-histidine tag (protein, UniProt P09148 1-348, looked up)", "Galactose-1-phosphate …": "MTQFNPVDHPHRRYNPLTGQWILVSPHRAKRPWQGAQETPAKQVLPAHDPDCFLCAGNVRVTGDKNPDYTGTYVFTNDFAALMSDTPDAPESHDPLMRCQSARGTSRVICFSPDHSKTLPELSVAALTEIVKTWQEQTAELGKTYPWVQVFENKGAAMGCSNPHPHGQIWANSFLPNEAEREDRLQKEYFAEQKSPMLVDYVQRELADGSRTVVETEHWLAVVPYWAAWPFETLLLPKAHVLRITDLTDAQRSDLALALKKLTSRYDNLFQCSFPYSMGWHGAPFNGEENQHWQLHAHFYPPLLRSATVRKFMVGYEMLAETQRDLTAEQAAERLRAVSDIHFRESGV", "modifications": "N-terminal His6 tag", "notes": "galactose-1-phosphate uridylyltransferase, E. coli, N-terminal six-histidine tag"}, "B2": {"name": "GalU: glucose-1-phosphate uridylyltransferase, E. coli, N-terminal six-histidine tag (protein, UniProt P0AEP3 2-302, looked up)", "UTP--glucose-1-phosphate …": "AAINTKVKKAVIPVAGLGTRMLPATKAIPKEMLPLVDKPLIQYVVNECIAAGITEIVLVTHSSKNSIENHFDTSFELEAMLEKRVKRQLLDEVQSICPPHVTIMQVRQGLAKGLGHAVLCAHPVVGDEPVAVILPDVILDEYESDLSQDNLAEMIRRFDETGHSQIMVEPVADVTAYGVVDCKGVELAPGESVPMVGVVEKPKADVAPSNLAIVGRYVLSADIWPLLAKTPPGAGDEIQLTDAIDMLIEKETVEAYHMKGKSHDCGNKLGYMQAFVEYGIRHNTLGTEFKAWLEEEMGIKK", "modifications": "N-terminal His6 tag", "notes": "glucose-1-phosphate uridylyltransferase, E. coli, N-terminal six-histidine tag"}}, "key": {"[1]": {"system": "Sucrose synthase II", "details": "cited from earlier work"}, "[2]": {"biological_target": "T1, CMP-NeuNAc synthetase (Escherichia coli O18:K1:H7, UniProt P13266)", "T1 construct": "host or cells: E. coli K1", "T1 sequence (P13266 whole entry)": "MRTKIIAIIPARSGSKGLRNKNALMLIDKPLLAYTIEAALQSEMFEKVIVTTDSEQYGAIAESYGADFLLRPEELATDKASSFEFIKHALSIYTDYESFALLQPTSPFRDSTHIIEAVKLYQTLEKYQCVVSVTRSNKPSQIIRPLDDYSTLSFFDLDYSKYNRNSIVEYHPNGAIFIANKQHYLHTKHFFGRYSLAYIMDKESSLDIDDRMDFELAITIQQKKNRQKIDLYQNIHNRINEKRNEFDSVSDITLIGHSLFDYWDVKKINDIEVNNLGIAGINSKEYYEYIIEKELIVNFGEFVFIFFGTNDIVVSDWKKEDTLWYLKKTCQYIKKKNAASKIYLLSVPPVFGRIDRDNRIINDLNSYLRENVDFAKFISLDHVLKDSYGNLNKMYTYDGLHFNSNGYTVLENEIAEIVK", "details": "enzyme purified from E. coli K1; read-out: apparent Km; cited from earlier work"}, "[3]": {"system": "UDP-GalNAc pyrophosphorylase", "details": "substrate of UDP-GalNAc pyrophosphorylase; cited from earlier work"}, "[4]": {"biological_target": "spHAS (Streptococcus pyogenes, UniProt P0C0H0)", "sequence (P0C0H0 whole entry)": "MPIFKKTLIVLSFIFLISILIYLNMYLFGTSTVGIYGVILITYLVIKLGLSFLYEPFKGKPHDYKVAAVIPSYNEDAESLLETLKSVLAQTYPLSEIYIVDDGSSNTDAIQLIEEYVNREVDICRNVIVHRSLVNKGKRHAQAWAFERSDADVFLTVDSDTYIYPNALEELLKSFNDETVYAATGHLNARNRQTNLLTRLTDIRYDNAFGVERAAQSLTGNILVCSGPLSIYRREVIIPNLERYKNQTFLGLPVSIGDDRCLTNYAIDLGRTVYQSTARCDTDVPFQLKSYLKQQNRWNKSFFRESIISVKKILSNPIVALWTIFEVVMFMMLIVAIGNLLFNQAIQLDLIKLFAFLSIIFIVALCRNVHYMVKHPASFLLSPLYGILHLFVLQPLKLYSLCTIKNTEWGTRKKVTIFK", "details": "cited from earlier work"}, "[5]": {"details": "more active than morphine; cited from earlier work"}, "[6]": {"system": "GalT", "assay": "Enzymatic activity assay for GalT (two-step, UDP-glucose dehydrogenase coupled)", "type": "biochemical, E. coli", "protocol": "This was a two-step assay. In the first step, GalT catalyzed reactions were performed at room temperature (24° C.) for 15 min in a final volume of 250 μl HEPES buffer (100 mM, pH 7.4) containing 1.6 mM Gal-1-P, 2.8 mM UDP-glucose, and 100 μl of enzyme solution. A blank was performed with water replacing Gal-1-P. The reaction was stopped by adding cold NaCl solution (0.5 ml, 0.15 M) and immediately transferring the tube to a boiling water bath for 5 min to terminate the reaction. The contents of the tubes were cooled to room temperature and vortexed vigorously to break up the coagulum. After centrifugation at 1400×g for 15 min, the clear supernatant (0.2 ml) was subjected to the UDP-glucose assay in a cuvette with a total volume of 1 ml containing 0.03 M Tris-acetate buffer, pH 8.7, 1.36 mM NAD, 0.2 ml sample (supernatant from the previous procedure) and 3.2 mU UDP-glucose dehydrogenase. The OD change at 340 nm was monitored by a UV spectrophotometer (HP 8453 Spectrophotometer, Hewlett-Packard Corn.)."}, "[7]": {"biological_target": "GalU (Escherichia coli, UniProt P0AEP3)", "sequence (P0AEP3 whole entry)": "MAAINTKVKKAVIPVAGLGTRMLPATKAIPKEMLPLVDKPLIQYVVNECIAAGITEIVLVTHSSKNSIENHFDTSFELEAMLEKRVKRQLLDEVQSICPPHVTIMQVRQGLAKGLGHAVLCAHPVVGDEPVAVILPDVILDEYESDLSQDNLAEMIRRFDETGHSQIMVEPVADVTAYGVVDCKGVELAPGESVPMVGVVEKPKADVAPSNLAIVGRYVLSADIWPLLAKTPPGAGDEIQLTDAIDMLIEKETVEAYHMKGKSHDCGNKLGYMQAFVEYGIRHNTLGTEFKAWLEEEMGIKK", "assay": "Enzymatic activity assay for GalU (two-step, UDP-glucose dehydrogenase coupled)", "type": "biochemical, E. coli", "protocol": "A two-step assay was carried out to detect the GalU activity. In the first step, GalU catalyzed reactions were performed at room temperature (24° C.) for 15 min in a final volume of 250 μl containing 1.6 mM Glc-1-P, 2.8 mM UTP, 10 mM MgCl2 and 100 μl enzyme solution. A blank was performed with water replacing Glc-1-P. The reaction was stopped by adding cold NaCl solution (0.5 ml, 0.15 M) and immediately transferring the tube to a boiling water bath for 5 min to terminate the reaction. The contents of the tubes were cooled to room temperature and vortexed vigorously to break up the coagulum. After centrifuge at 1400×g for 15 min, the clear supernatant (0.2 ml) was subjected to the UDP-glucose assay in a cuvette with a total volume of 1 ml containing 0.03 M Tris-acetate buffer, pH 8.7, 1.36 mM NAD, 0.2 ml sample (supernatant from the previous procedure) and 3.2 mU UDP-glucose dehydrogenase. The OD change at 340 nm was monitored by a UV spectrophotometer (HP 8453 Spectrophotometer, Hewlett-Packard Corn.)."}, "[8]": {"details": "25 ml lysate per 1 L cell culture"}, "[9]": {"details": "purified His-tagged enzyme, 1 U = 1 μmole product per minute at 24° C."}}, "note": "Like-named read-outs stand apart in the source and are kept apart here.", "data": [{"molecule": "Nc1ncnc2c1ncn2[C@@H]1O[C@H](COP(=O)(O)OP(=O)(O)OP(=O)(O)O)[C@@H](O)[C@H]1O", "note": "[ATP, adenosine 5′-triphosphate]", "values": [{"measurement": "effect on enzyme activity", "setting": "[1]; both directions, in the presence of uridine substrate (UDP-Glc or UDP)", "result": "strong inhibition"}]}, {"molecule": "Nc1ccn([C@@H]2O[C@H](COP(=O)(O)OP(=O)(O)OP(=O)(O)O)[C@@H](O)[C@H]2O)c(=O)n1", "note": "[CTP, Cytosine 5′-triphosphate]", "values": [{"measurement": "Km", "setting": "[2]", "result": 310, "unit": "µM"}]}, {"molecule": "CC(=O)N[C@H]1C(OP(=O)(O)O)O[C@H](CO)[C@H](O)[C@@H]1O", "note": "(stereo partly shown) [GalNAc-1-P, N-acetylgalactosamine-1-phosphate]", "values": [{"measurement": "Km", "setting": "[3]", "result": 290, "unit": "µM"}]}, {"molecule": "CC(=O)NC1C(OP(=O)(O)O)OC(CO)C(O)C1O", "note": "(stereo not shown) [GlcNAc-1-P]", "values": [{"measurement": "Km", "setting": "[3]", "result": 1100, "unit": "µM"}]}, {"molecule": "[Mg+2]", "note": "[Mg^2+]", "values": [{"measurement": "effect on enzyme activity", "setting": "[1]; sucrose-cleavage direction", "result": "little effect"}]}, {"molecule": "[Mn+2]", "note": "[Mn^2+]", "values": [{"measurement": "effect on enzyme activity", "setting": "[1]; sucrose-cleavage direction", "result": "strongly inhibited"}]}, {"molecule": "O=C(O)[C@H]1O[C@H](OP(=O)(O)OP(=O)(O)OC[C@H]2O[C@@H](n3ccc(=O)[nH]c3=O)[C@H](O)[C@@H]2O)[C@H](O)[C@@H](O)[C@@H]1O", "note": "[UDP-GlcA, uridine 5′-diphosphoglucuronic acid]", "values": [{"measurement": "Km", "setting": "[4]", "result": "40 ± 4", "unit": "µM"}]}, {"molecule": "CC(=O)N[C@H]1[C@@H](OP(=O)(O)OP(=O)(O)OC[C@H]2O[C@@H](n3ccc(=O)[nH]c3=O)[C@H](O)[C@@H]2O)O[C@H](CO)[C@@H](O)[C@@H]1O", "note": "[UDP-GlcNAc, uridine 5′-diphospho-N-acetylglucosamine]", "values": [{"measurement": "Km", "setting": "[4]", "result": "149 ± 3", "unit": "µM"}]}, {"molecule": "CN1CC[C@]23c4c5ccc(O)c4O[C@H]2[C@@H](O[C@@H]2O[C@H](C(=O)O)[C@@H](O)[C@H](O)[C@H]2O)C=C[C@H]3[C@H]1C5", "note": "[morphine-6-O-glucuronide]", "values": [{"measurement": "activity relative to morphine", "setting": "[5]", "result": 50, "unit": "times"}]}, {"molecule": "B1", "values": [{"measurement": "activity of enzyme in the cell lysate", "setting": "[6]; [8]", "result": 100, "unit": "U/L"}, {"measurement": "specific activity", "setting": "[6]; [9]", "result": 5, "unit": "U/mg"}]}, {"molecule": "B2", "values": [{"measurement": "activity of enzyme in the cell lysate", "setting": "[7]; [8]", "result": 100, "unit": "U/L"}, {"measurement": "specific activity", "setting": "[7]; [9]", "result": 10, "unit": "U/mg"}]}]}
